Measured values taken from the supplement of paper PMC10307832.

Experiments:
Experiment in all cases: relative viability (nuclei count vs DMSO), 5 days (fraction); higher = more cells survive
GW-2580 + Pictilisib = compound: COC1=CC=C(C=C1)COC2=C(C=C(C=C2)CC3=CN=C(N=C3N)N)OC [GW-2580] + CS(=O)(=O)N1CCN(Cc2cc3nc(-c4cccc5[nH]ncc45)nc(N4CCOCC4)c3s2)CC1 [Pictilisib] (partner 1 µM)
How it was run: (§1)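 Medians of duplicate plates are given as relative viability. That measure is the nuclei count in treated wells divided by the count in vehicle wells. Counts were taken on 4× images of lung cancer cell lines in 1536-well plates, 5 days after pin-tool dosing the day after seeding with one drug alone or a fixed anchor-drug dose plus five library-drug doses (not always all listed) in √10 steps.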

Fedratinib + Linsitinib = compound: Cc1cnc(Nc2ccc(OCCN3CCCC3)cc2)nc1Nc1cccc(S(=O)(=O)NC(C)(C)C)c1 [Fedratinib] + C[C@]1(O)C[C@@H](c2nc(-c3ccc4ccc(-c5ccccc5)nc4c3)c3c(N)nccn32)C1 [Linsitinib] (partner 1 µM)
How it was run: as §1

GW-2580 + Luminespib = compound: COC1=CC=C(C=C1)COC2=C(C=C(C=C2)CC3=CN=C(N=C3N)N)OC [GW-2580] + CCNC(=O)c1noc(-c2cc(C(C)C)c(O)cc2O)c1-c1ccc(CN2CCOCC2)cc1 [Luminespib] (partner 0.01 µM)
How it was run: as §1

GW-2580 + Foretinib = compound: COC1=CC=C(C=C1)COC2=C(C=C(C=C2)CC3=CN=C(N=C3N)N)OC [GW-2580] + COc1cc2c(Oc3ccc(NC(=O)C4(C(=O)Nc5ccc(F)cc5)CC4)cc3F)ccnc2cc1OCCCN1CCOCC1 [Foretinib] (partner 0.25 µM)
How it was run: as §1

GW-2580 + Decitabine = compound: COC1=CC=C(C=C1)COC2=C(C=C(C=C2)CC3=CN=C(N=C3N)N)OC [GW-2580] + Nc1ncn([C@H]2C[C@H](O)[C@@H](CO)O2)c(=O)n1 [Decitabine] (partner 2 µM)
How it was run: as §1

Cell Line | relative viability (GW-2580 + Pictilisib; first compound 0.08 µM) | relative viability (GW-2580 + Pictilisib; first compound 0.8 µM) | relative viability (GW-2580 + Pictilisib; first compound 2.53 µM) | relative viability (GW-2580 + Pictilisib; first compound 8 µM) | relative viability (Fedratinib + Linsitinib; first compound 0.1 µM) | relative viability (Fedratinib + Linsitinib; first compound 0.3162 µM) | relative viability (Fedratinib + Linsitinib; first compound 1 µM) | relative viability (GW-2580 + Luminespib; first compound 0.08 µM) | relative viability (GW-2580 + Luminespib; first compound 0.8 µM) | relative viability (GW-2580 + Luminespib; first compound 2.53 µM) | relative viability (GW-2580 + Luminespib; first compound 8 µM) | relative viability (GW-2580 + Foretinib; first compound 0.08 µM) | relative viability (GW-2580 + Foretinib; first compound 0.8 µM) | relative viability (GW-2580 + Foretinib; first compound 2.53 µM) | relative viability (GW-2580 + Foretinib; first compound 8 µM) | relative viability (GW-2580 + Decitabine; first compound 0.08 µM) | relative viability (GW-2580 + Decitabine; first compound 0.8 µM) | relative viability (GW-2580 + Decitabine; first compound 2.53 µM) | relative viability (GW-2580 + Decitabine; first compound 8 µM)
NCI-H3122 | 0.586 | 0.611 | 0.584 | 0.576 | 1.02 | 1.01 | 0.948 | 0.0808 | 0.0609 | 0.0868 | 0.0798 | 1.07 | 0.991 | 0.982 | 0.961 | 0.377 | 0.411 | 0.437 | 0.54
NCI-H1975 | 0.294 | 0.325 | 0.29 | 0.29 | 0.897 | 0.929 | 0.872 | 0.186 | 0.5 | 0.162 | 0.193 | 0.965 | 1.03 | 0.939 | 0.803 | 0.417 | 0.455 | 0.376 | 0.4
NCI-H1944 | 0.35 | 0.324 | 0.343 | 0.278 | 1.28 | 1.12 | 1.1 | 0.692 | 0.767 | 0.7 | 0.628 | 0.945 | 0.886 | 0.966 | 0.631 | 0.414 | 0.421 | 0.45 | 0.395
LU99A | 0.274 | 0.322 | 0.251 | 0.294 | 0.521 | 0.513 | 0.48 | 0.289 | 0.241 | 0.193 | 0.273 | 0.834 | 0.944 | 0.724 | 0.881 | 0.924 | 1.05 | 0.812 | 0.952
SW 1573 | 0.442 | 0.613 | 0.542 | 0.536 | 0.683 | 0.768 | 0.802 | 0.257 | 0.213 | 0.24 | 0.217 | 1.02 | 1.02 | 1.02 | 0.852 | 0.498 | 0.58 | 0.422 | 0.537
NCI-H2347 | 0.662 | 0.992 | 0.592 | 0.717 | 0.871 | 0.922 | 0.878 | 0.491 | 0.656 | 0.369 | 0.471 | 0.739 | 0.885 | 0.586 | 1.17 | 0.676 | 0.662 | 0.582 | 0.587
NCI-H2009 | 0.924 | 0.982 | 0.652 | 0.809 | 1.18 | 1.18 | 1.17 | 1.15 | 1.11 | 0.999 | 0.876 | 1.31 | 1.25 | 1.21 | 1.17 | 0.415 | 0.427 | 0.378 | 0.482
HCC-15 | 0.79 | 0.824 | 0.653 | 0.677 | 0.755 | 0.719 | 0.734 | 0.308 | 0.296 | 0.436 | 0.521 | 1.06 | 1.09 | 1.01 | 0.958 | 0.631 | 0.818 | 0.636 | 0.69
COR-L23 | 0.834 | 0.969 | 0.695 | 0.888 | 1.04 | 0.906 | 0.759 | 0.875 | 0.774 | 0.828 | 0.808 | 1.12 | 1.15 | 1.09 | 0.882 | 0.451 | 0.462 | 0.448 | 0.432
NCI-H727 | 0.355 | 0.622 | 0.349 | 0.372 | 0.2 | 0.213 | 0.335 |  | 0.539 | 0.344 | 0.382 | 0.694 | 1.05 | 0.834 | 0.777 | 0.784 | 1.12 | 0.808 | 0.768
NCI-H2087 | 1.04 | 1.03 | 0.61 | 0.767 | 1.02 | 0.923 | 0.859 | 0.133 | 0.179 | 0.174 | 0.164 | 1.21 | 1.25 | 1.2 | 0.937 | 0.276 | 0.267 | 0.237 | 0.276
BEN | 0.612 | 0.602 | 0.451 | 0.515 | 0.779 | 0.914 | 0.852 | 0.353 | 0.332 | 0.29 | 0.264 | 0.61 | 0.731 | 0.406 | 0.674 | 0.703 | 0.79 | 0.619 | 0.677
LCLC-103H | 0.648 | 0.638 | 0.649 | 0.599 | 1.19 | 1.1 | 0.966 | 1.01 | 0.895 | 0.844 | 0.839 | 0.979 | 0.865 | 0.83 | 0.676 | 0.752 | 0.724 | 0.661 | 0.706
EKVX | 0.395 | 0.448 | 0.395 | 0.5 | 1.09 | 0.967 | 0.982 | 0.93 | 0.936 | 0.863 | 0.923 | 0.971 | 1.11 | 0.726 | 0.779 | 0.578 | 0.749 | 0.345 | 0.335
LXF-289 | 0.82 | 0.849 | 0.653 | 0.672 | 0.989 | 0.943 | 0.963 | 0.719 | 0.732 | 0.684 | 0.616 | 1.06 | 0.99 | 0.957 | 0.891 | 0.358 | 0.391 | 0.407 | 0.368
ABC-1 | 0.761 | 0.564 | 0.571 | 0.679 | 0.625 | 0.859 | 0.713 | 0.637 | 0.505 | 0.391 | 0.518 | 1.09 | 1.16 | 0.931 | 0.86 | 0.72 | 1.01 | 1.22 | 0.934
